Experimental data: ChEMBL document CHEMBL3992548, “Design, synthesis and biological evaluation of 2,4-disubstituted oxazole derivatives as potential PDE4 inhibitors” (Bioorg Med Chem, 2017)

Key:
[1] = molecular target: 3',5'-cyclic-AMP phosphodiesterase 4B (Homo sapiens, UniProt Q07343); assay: Inhibition of human U937 cells-derived PDE4B using [3H]cAMP as substrate after 30 mins
PBMC = assay: Anti-inflammatory activity in human PBMC assessed as inhibition of LPS-induced TNFalpha secretion preincubated for 30 mins followed by LPS stimulation for 18 hrs by TR-FRET assay; assay type: functional, cell-based
[2] = molecular target: 3',5'-cyclic-AMP phosphodiesterase 4D (Homo sapiens, UniProt Q08499); assay: Inhibition of human U937 cells-derived PDE4D using [3H]cAMP as substrate after 30 mins
3',5'-cyclic-AMP phosphodiesterase 4D, sequence (Q08499 whole entry): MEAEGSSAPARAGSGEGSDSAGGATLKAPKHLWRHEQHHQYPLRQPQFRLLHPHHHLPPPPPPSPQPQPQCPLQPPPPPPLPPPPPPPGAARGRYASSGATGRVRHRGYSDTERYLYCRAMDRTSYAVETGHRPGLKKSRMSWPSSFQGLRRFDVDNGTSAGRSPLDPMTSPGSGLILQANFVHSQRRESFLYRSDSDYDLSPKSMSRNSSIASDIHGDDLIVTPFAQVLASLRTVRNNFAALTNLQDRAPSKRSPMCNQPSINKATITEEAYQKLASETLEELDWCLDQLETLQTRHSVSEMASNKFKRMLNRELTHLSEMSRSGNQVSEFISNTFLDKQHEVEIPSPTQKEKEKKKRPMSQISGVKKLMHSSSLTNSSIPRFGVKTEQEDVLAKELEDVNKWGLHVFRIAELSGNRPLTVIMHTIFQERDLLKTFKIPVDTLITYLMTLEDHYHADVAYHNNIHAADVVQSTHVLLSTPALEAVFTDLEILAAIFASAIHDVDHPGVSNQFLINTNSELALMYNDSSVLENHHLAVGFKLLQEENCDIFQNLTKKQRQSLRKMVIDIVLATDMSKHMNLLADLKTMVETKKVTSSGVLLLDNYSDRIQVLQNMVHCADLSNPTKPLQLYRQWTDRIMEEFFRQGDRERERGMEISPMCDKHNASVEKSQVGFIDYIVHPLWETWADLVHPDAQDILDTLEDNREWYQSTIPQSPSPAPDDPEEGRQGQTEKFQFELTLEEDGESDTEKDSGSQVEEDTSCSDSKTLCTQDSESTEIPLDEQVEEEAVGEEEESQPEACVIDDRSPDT

Mus musculus = assay: Anti-inflammatory activity in LPS-induced Swiss albino mouse sepsis model assessed as inhibition of TNF-alpha release in serum at 10 mg/kg, po administered 30 mins prior to LPS challenge measured after 90 mins by ELISA relative to control; assay type: functional
Rattus norvegicus = assay: Anti-inflammatory activity in Sprague-Dawley rat model of LPS-induced asthma/COPD assessed as inhibition of neutrophilia in lungs at 10 mg/kg, po administered 30 mins prior to LPS challenge for 40 mins measured after 6 hrs relative to control; assay type: functional

3',5'-cyclic-AMP phosphodiesterase 4B, sequence (Q07343 whole entry): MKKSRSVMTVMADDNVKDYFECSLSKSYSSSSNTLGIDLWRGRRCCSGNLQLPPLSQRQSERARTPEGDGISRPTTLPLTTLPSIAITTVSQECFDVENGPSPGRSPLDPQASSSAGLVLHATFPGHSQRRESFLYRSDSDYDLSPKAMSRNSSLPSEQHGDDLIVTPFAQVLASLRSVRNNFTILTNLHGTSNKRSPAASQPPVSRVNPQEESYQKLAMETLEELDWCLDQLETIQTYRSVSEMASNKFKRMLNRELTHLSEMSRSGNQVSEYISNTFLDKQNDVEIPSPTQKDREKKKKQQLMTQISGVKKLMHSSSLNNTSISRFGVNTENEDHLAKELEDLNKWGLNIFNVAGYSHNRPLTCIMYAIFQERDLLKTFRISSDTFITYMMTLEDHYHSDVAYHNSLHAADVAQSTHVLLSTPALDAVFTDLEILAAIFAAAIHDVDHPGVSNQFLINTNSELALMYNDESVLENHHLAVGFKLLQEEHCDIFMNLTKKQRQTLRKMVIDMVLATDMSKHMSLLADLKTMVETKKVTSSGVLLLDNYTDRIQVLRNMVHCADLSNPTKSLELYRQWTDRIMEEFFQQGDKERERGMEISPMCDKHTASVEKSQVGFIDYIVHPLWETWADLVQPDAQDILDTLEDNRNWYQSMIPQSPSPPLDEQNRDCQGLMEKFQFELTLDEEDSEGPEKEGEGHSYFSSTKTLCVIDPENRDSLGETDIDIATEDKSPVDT

| SMILES | IC50 [1] [µM] | IC50 (PBMC) [µM] | IC50 [2] [µM] | inhibition in vivo at 10 mg/kg (Mus musculus) [%] | inhibition in vivo at 10 mg/kg (Rattus norvegicus) [%] |
| --- | --- | --- | --- | --- | --- |
| Cc1cc(C)n(C(=O)c2coc(-c3ccc(Br)cc3)n2)n1 | 54.8 | 168 |  |  |  |
| O=C(c1coc(-c2ccccc2O)n1)n1cccn1 | 85.6 | 205 |  |  |  |
| Cc1ccc(-c2nc(C(=O)n3nc(C)cc3C)co2)cc1 | 6.7 | 36.7 |  |  |  |
| O=C(c1coc(-c2cccc(F)c2)n1)n1cccn1 | 45.1 | 99.6 |  |  |  |
| O=C(c1coc(-c2ccc(O)cc2)n1)n1cccn1 | 18.4 | 75.5 |  |  |  |
| Cc1cc(C)n(C(=O)c2coc(-c3cccc(O)c3)n2)n1 | 28.9 | 78.4 |  |  |  |
| O=C(c1coc(-c2ccccc2)n1)n1cccn1 | 88.7 | 199 |  |  |  |
| Cc1cc(C)n(C(=O)c2coc(-c3ccccc3)n2)n1 | 75.8 | 199 |  |  |  |
| O=C(c1coc(-c2ccc(F)cc2)n1)n1cccn1 | 9.8 | 54.8 |  |  |  |
| Cc1cc(C)n(C(=O)c2coc(-c3cccc(F)c3)n2)n1 | 40.8 | 83.4 |  |  |  |
| Cc1cc(C)n(C(=O)c2coc(-c3ccc(F)cc3)n2)n1 | 8.4 | 29.7 |  |  |  |
| COc1ccc(-c2nc(C(=O)n3cccn3)co2)cc1 | 3.2 | 20.8 | 8.4 | 26.1 | 22.4 |
| COc1ccc(-c2nc(C(=O)n3nc(C)cc3C)co2)cc1 | 1.6 | 10.3 | 10.6 | 42.6 | 39.1 |
| Cc1cc(C)n(C(=O)c2coc(-c3ccccc3O)n2)n1 | 54.8 | 139 |  |  |  |
| O=C(c1coc(-c2cccc(O)c2)n1)n1cccn1 | 39.7 | 88.4 |  |  |  |
| Cc1cc(C)n(C(=O)c2coc(-c3ccc(O)cc3)n2)n1 | 15.8 | 66.4 |  |  |  |
| O=C(c1coc(-c2ccc(Cl)cc2)n1)n1cccn1 | 5.3 | 40.1 |  |  |  |
| COc1cccc(-c2nc(C(=O)n3cccn3)co2)c1 | 5.9 | 45.8 |  |  |  |
| O=C(c1coc(-c2ccc(Br)cc2)n1)n1cccn1 | 58.7 | 187 |  |  |  |
| COc1cccc(-c2nc(C(=O)n3nc(C)cc3C)co2)c1 | 4.5 | 18.7 |  |  |  |
| Cc1ccc(-c2nc(C(=O)n3cccn3)co2)cc1 | 17.5 | 72.4 |  |  |  |
| Cc1cc(C)n(C(=O)c2coc(-c3ccc(Cl)cc3)n2)n1 | 4.1 | 27.6 |  |  |  |
| COc1ccc(C2CNC(=O)C2)cc1OC1CCCC1 (stereo not drawn) [ROLIPRAM] |  | 18.6 |  | 40.8 | 30.9 |
